Results reported in patent US12286429B2, “5-oxo-1,2,3,5,8,8a-hexahydroindolizine-3-carboxamide derivatives useful as a factor XIa inhibitors” (Janssen Pharmaceutica NV, priority 2021, dated 2025).
Values belong to the compound of their own block, whether it stands above or below them.

Columns and labels:
Factor XIa = Factor XIa (Homo sapiens, UniProt P03951); test: Factor XIa inhibition assay utilizing a fluorophore-quencher pair peptide substrate (FLINT); format: biochemical; details: 11-point, 3-fold serial dilution, top 100 nM; 30 min preincubation; 15 μM 5Fam-KLTRAETV-K5Tamra substrate; kinetic reads over 30 min; read-out: FXIa Inhibition IC50
Chain of Factor XIa (P03951 388-625 limits assumed): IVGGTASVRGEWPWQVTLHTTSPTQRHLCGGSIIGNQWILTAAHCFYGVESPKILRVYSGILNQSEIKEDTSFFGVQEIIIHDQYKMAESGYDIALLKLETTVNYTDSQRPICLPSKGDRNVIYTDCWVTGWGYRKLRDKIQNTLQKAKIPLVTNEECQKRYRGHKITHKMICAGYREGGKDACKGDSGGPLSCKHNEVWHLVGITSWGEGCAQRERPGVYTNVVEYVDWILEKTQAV
Chain of Factor XIa (P03951 19-387 partner limits assumed): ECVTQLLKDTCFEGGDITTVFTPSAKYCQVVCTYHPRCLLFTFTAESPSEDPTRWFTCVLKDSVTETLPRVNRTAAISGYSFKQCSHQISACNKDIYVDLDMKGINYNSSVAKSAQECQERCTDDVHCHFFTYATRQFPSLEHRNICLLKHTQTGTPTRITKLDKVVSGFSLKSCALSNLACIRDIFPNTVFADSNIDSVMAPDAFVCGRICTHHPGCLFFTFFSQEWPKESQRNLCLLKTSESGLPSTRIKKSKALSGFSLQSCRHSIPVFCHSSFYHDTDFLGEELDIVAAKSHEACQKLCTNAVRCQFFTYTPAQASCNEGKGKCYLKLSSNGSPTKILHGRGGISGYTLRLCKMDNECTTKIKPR
Text: Biological Example 1: Factor XIa Inhibition Assay Utilizing a Fluorophore-Quencher Pair Peptide Substrate
A fluorescence intensity (FLINT) based assay was used to monitor inhibition of Factor XIa. The peptide substrate, 5Fam-KLTRAETV-K5Tamra (purchased from New England Peptide) was chosen based on the FXI sequence. Conversion of zymogen FXI to its activated form, FXIa, occurs by proteolytic cleavage by […] at two sites, Arg146 and Arg180. The custom peptide used in this assay was based on the Arg146 cleavage site of FXI. The peptide substrate was designed with a fluorophore-quencher pair, where the fluorescence is quenched until FXIa cleaves the 8-mer peptide after the Arg residue.
The Factor XIa FLINT assay was used with the following 5Fam-KLTRAETV-K5Tamra assay buffer: 50 mM Tris, pH 7.5, 100 mM NaCl, 5 mM CaCl2, 0.1 mg/mL BSA, 0.03% CHAPS. Assay buffer was prepared by mixing all ingredients fresh. 5Fam-KLTRAETV-K5Tamra peptide substrate was first prepared at 10 mM in 100% DMSO, then diluted to 3 mM in 100% DMSO. Assay buffer was then added directly to the 3 mM stock of substrate to prepare the 30 μM 2× working concentration (15 μM final concentration). The 2× Factor XIa stock solution was prepared by diluting 6.562 μM stock in 1× assay buffer for a […].
Test compound(s) were run in an 11-point, 3-fold serial dilution with a final top compound concentration of 100 nM. Final DMSO in assay was 2%. FXIa was preincubated with compound for 30-minutes and then substrate was added to initiate the reaction. The assay was run with kinetic (KIN) reads at 5 min intervals over 30 minutes. […] More specifically, the assay was run as follows: • 100 nL of 0.01 mM test compound was dispensed into black 384-well non-binding Greiner BioOne 784900 plate for 0.1 μM final concentration, • 5 μL of 1× assay buffer was dispensed to column 24 (low control) and 5 μL 2× Factor XIa solution was dispensed to columns 1-23 (column 23 high control); • the plate was centrifuged with a “cover” plate at 500 rpm for 1 min • the plate was pre-incubated for 30 minutes at room temperature with plate covered; • 5 μL of 2×5Fam-KLTRAETV-K5Tamra peptide substrate was dispensed into the entire plate, columns 1-24; • the plate was centrifuged with a “cover” plate at 500 rpm for 1 min; • the plate was read monitoring fluorescence intensity on the BMG PHERAStar at room temperature, using fluorescence module 485 nm/520 nm.
(§1) Percent inhibition (IC50) curves were generated per compound tested, and data was analyzed using a 4-parameter logistic fit using GeneData Screener. The relative fluorescence unit (RFU) values were normalized to percent inhibition using the following equation: % inhibition=((HC−LC)−(compound−LC)/(HC−LC))*100
where LC—low control=mean signal of no Factor XIa or 100% inhibition of Factor XIa; HC—high control=mean signal of Factor XIa+5Fam-KLTRAETV-K5Tamra peptide substrate with DMSO only.
(§2) An 11-point dose response curve for the test compound(s) was generated using GENDATA to determine IC50 value based on the following equation: Y=Bottom+(Top−Bottom)/(1+10^((log IC50−X)*HillSlope))
(§3) where Y is the % inhibition in the presence of X inhibitor concentration, Top=high control=mean signal of Factor XIa+5Fam-KLTRAETV-K5Tamra peptide substrate with DMSO only; Bottom=low control—mean signal of no Factor XIa or 100% inhibition of Factor XIa; HillSlope—Hill coefficient; and IC50=concentration of compound with 50% inhibition in relation to top/high control.

human plasma kallikrein = human plasma kallikrein (Homo sapiens, UniProt P03952); test: Kallikrein inhibition assay utilizing a quenched AMC peptide substrate (FLINT); format: biochemical; details: 11-point, 3-fold serial dilution, top 1 μM; 30 min preincubation; 2 nM kallikrein; 50 μM Z-Gly-Pro-Arg-AMC; kinetic reads over 30 min
Chain of human plasma kallikrein (P03952 391-638 limits assumed): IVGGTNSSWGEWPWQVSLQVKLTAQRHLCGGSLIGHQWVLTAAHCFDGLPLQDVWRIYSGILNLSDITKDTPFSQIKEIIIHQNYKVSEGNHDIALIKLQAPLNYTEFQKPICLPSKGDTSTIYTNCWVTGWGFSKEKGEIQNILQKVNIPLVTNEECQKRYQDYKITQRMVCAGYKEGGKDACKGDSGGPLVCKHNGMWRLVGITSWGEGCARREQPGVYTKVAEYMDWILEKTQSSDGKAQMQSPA
Chain of human plasma kallikrein (P03952 20-390 partner limits assumed): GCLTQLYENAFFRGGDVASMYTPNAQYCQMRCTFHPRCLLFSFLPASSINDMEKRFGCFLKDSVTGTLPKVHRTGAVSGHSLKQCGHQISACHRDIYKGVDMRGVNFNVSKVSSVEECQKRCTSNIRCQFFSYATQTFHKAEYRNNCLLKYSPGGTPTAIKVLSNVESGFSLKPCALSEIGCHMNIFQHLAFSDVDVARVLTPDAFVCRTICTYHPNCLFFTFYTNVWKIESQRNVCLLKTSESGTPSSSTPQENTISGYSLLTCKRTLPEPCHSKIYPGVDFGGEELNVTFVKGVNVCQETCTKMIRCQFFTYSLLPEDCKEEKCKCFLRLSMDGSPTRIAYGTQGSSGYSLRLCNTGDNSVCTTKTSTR
Experimental: Biological Example 2: Kallikrein Inhibition Assay Utilizing a Quenched AMC Peptide Substrate
A fluorescence intensity (FLINT) based assay was used to monitor inhibition of human plasma kallikrein. The peptide substrate, Z-Gly-Pro-Arg-AMC (Purchased from Bachem; Catalog #I-1150) was chosen based on its relatively low KM for kallikrein which enables running the assay at lower substrate concentrations to control background fluorescence. The kinetic parameters for this substrate were determined by fitting titration data to the Michaelis-Menten equation yielding a KM=40 μM, kcat=0.76 s^−1, and kcat/KM=18932 M^−1s^−1.
The Kallikrein FLINT assay was used with the following Z-Gly-Pro-Arg-AMC assay buffer: 50 mM Tris, pH 7.5, 100 mM NaCl, 5 mM CaCl2, 0.1 mg/mL BSA, 0.03% CHAPS. Assay buffer was prepared by mixing all ingredients fresh. 2× Z-Gly-Pro-Arg-AMC peptide substrate was prepared by diluting 10 mM stock into 1× assay buffer for a 100 μM working concentration (50 μM final concentration). The 2× kallikrein stock solution was prepared by diluting 14.76 μM stock in 1× assay buffer for a 4 nM working stock solution (2 nM final concentration).
Test compound(s) were run in an 11-point, 3-fold serial dilution with a final top compound concentration of 1 μM. Final DMSO in assay was 2%. Plasma kallikrein was pre-incubated for 30-minute with compound and then 50 μM substrate was added to initiate the reaction. The assay was run with kinetic (KIN) reads at 5 min intervals over 30 minutes. The time course was linear using 2 nM kallikrein greater than 30 minutes. More specifically, the assay was run as follows: • 100 nL of 0.1 mM test compound was dispensed into black 384-well non-binding Greiner BioOne 784900 plate for 1 μM final concentration; • 5 μL of 1× assay buffer was dispensed to columns 24 (low control) and 5 μL 2× human kallikrein enzyme solution was dispensed to columns 1-23 (column 23 high control); • the plate was centrifuged with a “cover” plate at 500 rpm for 1 min • the plate was pre-incubated for 30 minutes at room temperature with plate covered; • 5 μL of 2× Z-Gly-Pro-Arg-AMC peptide substrate was dispensed into the entire plate, columns 1-24; • the plate was centrifuged with a “cover” plate at 500 rpm for 1 min; • the plate was read monitoring fluorescence intensity on the BMG PHERAStar at room temperature, using fluorescence module 340 nm/440 nm.
as §1
where LC—low control=mean signal of […] 100% inhibition of human kallikrein enzyme; HC—high control=mean signal of […]+Z-Gly-Pro-Arg-AMC peptide substrate with DMSO only.
as §2
as §3, with “human kallikrein enzyme+Z-Gly-Pro-Arg-AMC” for “Factor XIa+5Fam-KLTRAETV-K5Tamra”, “human kallikrein enzyme” for “Factor XIa”, “human kallikrein enzyme;” for “Factor XIa;”

Compound: CO[C@@H]1C[C@@H](C(=O)Nc2ccc3nccnc3c2)N2C(=O)C=C(c3c(-n4cnnn4)ccc(Cl)c3F)CC12 (mixture of isomers) [ID No. 46, (1R,3S)-7-[3-Chloro-2-fluoro-6-(tetrazol-1-yl)phenyl]-1-methoxy-5-oxo-N-quinoxalin-6-yl-2,3,8,8a-tetrahydro-1H-indolizine-3-carboxamide]
IC50 (Factor XIa): 5.3 nM
IC50 (human plasma kallikrein): 12.3 nM

Compound: O=C(Nc1ccc(-n2ccnn2)cc1)[C@@H]1CCC2CC(c3c(-n4cnnn4)ccc(Cl)c3F)=CC(=O)N21 (mixture of isomers) [ID No. 48, (3S)—N-(4-(1H-1,2,3-triazol-1-yl)phenyl)-7-(3-chloro-2-fluoro-6-(1H-tetrazol-1-yl)phenyl)-5-oxo-1,2,3,5,8,8a-hexahydroindolizine-3-carboxamide]
IC50 (Factor XIa): 21.4 nM
IC50 (human plasma kallikrein): 86.3 nM

Compound: O=C(Nc1ccc(-n2nccn2)cc1)[C@@H]1CCC2CC(c3c(-n4cnnn4)ccc(Cl)c3F)=CC(=O)N21 (mixture of isomers) [ID No. 49, (3S)—N-(4-(2H-1,2,3-triazol-2-yl)phenyl)-7-(3-chloro-2-fluoro-6-(1H-tetrazol-1-yl)phenyl)-5-oxo-1,2,3,5,8,8a-hexahydroindolizine-3-carboxamide]
IC50 (Factor XIa): 30.5 nM
IC50 (human plasma kallikrein): 54.2 nM

Compound: O=C(Nc1ccc2nc[nH]c2c1)[C@@H]1CCC2CC(c3c(-n4cnnn4)ccc(Cl)c3F)=CC(=O)N21 (mixture of isomers) [ID No. 53, (3S)—N-(1H-benzo[d]imidazol-6-yl)-7-(3-chloro-2-fluoro-6-(1H-tetrazol-1-yl)phenyl)-5-oxo-1,2,3,5,8,8a-hexahydroindolizine-3-carboxamide]
IC50 (Factor XIa): 11.1 nM
IC50 (human plasma kallikrein): 56.2 nM

Compound: O=C(Nc1ccc2ncsc2c1)[C@@H]1CCC2CC(c3c(-n4cnnn4)ccc(Cl)c3F)=CC(=O)N21 (mixture of isomers) [ID No. 55, (3S)—N-(Benzo[d]thiazol-6-yl)-7-(3-chloro-2-fluoro-6-(1H-tetrazol-1-yl)phenyl)-5-oxo-1,2,3,5,8,8a-hexahydroindolizine-3-carboxamide]
IC50 (Factor XIa): 6.6 nM
IC50 (human plasma kallikrein): 27.7 nM

Compound: O=C(Nc1ccc(-c2cnn[nH]2)cc1)[C@@H]1CCC2CC(c3c(-n4cnnn4)ccc(Cl)c3F)=CC(=O)N21 (mixture of isomers) [ID No. 68, (3S)-7-[3-Chloro-2-fluoro-6-(tetrazol-1-yl)phenyl]-5-oxo-N-[4-(1H-triazol-5-yl)phenyl]-2,3,8,8a-tetrahydro-1H-indolizine-3-carboxamide]
IC50 (Factor XIa): 1.7 nM
IC50 (human plasma kallikrein): 47.1 nM

Compound: O=C(Nc1ccc(-c2nc[nH]n2)cc1)[C@@H]1CCC2CC(c3c(-n4cnnn4)ccc(Cl)c3F)=CC(=O)N21 (mixture of isomers) [ID No. 69, (3S)-7-[3-Chloro-2-fluoro-6-(tetrazol-1-yl)phenyl]-5-oxo-N-[4-(1H-1,2,4-triazol-3-yl)phenyl]-2,3,8,8a-tetrahydro-1H-indolizine-3-carboxamide]
IC50 (Factor XIa): 7.3 nM
IC50 (human plasma kallikrein): 52.3 nM

Continued, values first:

IC50 (Factor XIa): 23.3 nM
IC50 (human plasma kallikrein): 274 nM
Compound: O=C(Nc1ccc(-c2nc(=O)o[nH]2)cc1F)[C@@H]1CCC2CC(c3c(-n4cnnn4)ccc(Cl)c3F)=CC(=O)N21 (mixture of isomers) [ID No. 47, (3S)-7-(3-Chloro-2-fluoro-6-(1H-tetrazol-1-yl)phenyl)-N-(2-fluoro-4-(5-oxo-2,5-dihydro-1,2,4-oxadiazol-3-yl)phenyl)-5-oxo-1,2,3,5,8,8a-hexahydroindolizine-3-carboxamide]

IC50 (Factor XIa): 11.5 nM
IC50 (human plasma kallikrein): 59 nM
Compound: O=C(Nc1ccc2ncoc2c1)[C@@H]1CCC2CC(c3c(-n4cnnn4)ccc(Cl)c3F)=CC(=O)N21 (mixture of isomers) [ID No. 54, (3S)—N-(Benzo[d]oxazol-6-yl)-7-(3-chloro-2-fluoro-6-(1H-tetrazol-1-yl)phenyl)-5-oxo-1,2,3,5,8,8a-hexahydroindolizine-3-carboxamide]

IC50 (Factor XIa): 5.4 nM
IC50 (human plasma kallikrein): 19 nM
Compound: O=C(Nc1ccc2n[nH]nc2c1)[C@@H]1CCC2CC(c3c(-n4cnnn4)ccc(Cl)c3F)=CC(=O)N21 (mixture of isomers) [ID No. 56, (3S)—N-(2H-benzo[d][1,2,3]triazol-5-yl)-7-(3-chloro-2-fluoro-6-(1H-tetrazol-1-yl)phenyl)-5-oxo-1,2,3,5,8,8a-hexahydroindolizine-3-carboxamide]

IC50 (Factor XIa): 16.7 nM
IC50 (human plasma kallikrein): 36.1 nM
Compound: O=C(Nc1ccc2[nH]nc(O)c2c1)[C@@H]1CCC2CC(c3c(-n4cnnn4)ccc(Cl)c3F)=CC(=O)N21 (mixture of isomers) [ID No. 57, (3S)-7-[3-Chloro-2-fluoro-6-(tetrazol-1-yl)phenyl]-N-(3-hydroxy-1H-indazol-5-yl)-5-oxo-2,3,8,8a-tetrahydro-1H-indolizine-3-carboxamide]

IC50 (Factor XIa): 1.2 nM
IC50 (human plasma kallikrein): 107 nM
Compound: O=C(O)c1ccc(NC(=O)[C@@H]2CCC3CC(c4c(-n5cnnn5)ccc(Cl)c4F)=CC(=O)N32)cc1F (mixture of isomers) [ID No. 58, 4-[[(3S)-7-[3-Chloro-2-fluoro-6-(tetrazol-1-yl)phenyl]-5-oxo-2,3,8,8a-tetrahydro-1H-indolizine-3-carbonyl]amino]-2-fluoro-benzoic acid]

IC50 (Factor XIa): 3 nM
IC50 (human plasma kallikrein): 9.5 nM
Compound: O=C(Nc1ccc2[nH]c(=O)cc(O)c2c1)[C@@H]1CCC2CC(c3c(-n4cnnn4)ccc(Cl)c3F)=CC(=O)N21 (mixture of isomers) [ID No. 64, (3S)-7-[3-Chloro-2-fluoro-6-(tetrazol-1-yl)phenyl]-N-(4-hydroxy-2-oxo-1H-quinolin-6-yl)-5-oxo-2,3,8,8a-tetrahydro-1H-indolizine-3-carboxamide]
